These results are taken from patent US4634766A, “1,4-diaza-phenothiazines” (Merck Frosst Canada, Inc., priority 1984, dated 1987).

For orientation: inhibition means the relative decrease from the control value, in per cent.

The subject of test [1] is LTB4 formation in rat polymorphonuclear leukocytes. In words: Rat Polymorphonuclear Leukocyte (P.M.N.) Assay: inhibition of LTB4 formation. The class given is cell-based. The following applies: A-23187 stimulated rat PMN, LTB4 bioassay, read-out: PMN I50. The procedure:
Rats under ether anesthesia were injected (i.p.) with 8 ml of a suspension of sodium caseinate (6 grams in ca. 50 ml water). After 15-24 hours the rats were sacrificed (CO2) and the cells from the peritoneal cavity were recovered by lavage with 20 ml of buffer (Eagles MEM containing 30 mM HEPES adjusted to pH 7.4 with NaOH). The cells were pelleted (350×g,5 min.), resuspended in buffer with vigorous shaking, filtered through lens paper, recentrifuged and finally suspended in buffer at a concentration of […]. A 500 μl aliquot of PMN suspension and test compound were preincubated for 2 minutes at 37° C., followed by the addition of 10 μM A-23187. The suspension was stirred for an additional 4 minutes then bioassayed for LTB4 content by adding an aliquot to a second 500 μl portion of the PMN at 37° C. The LTB4 produced in the first incubation caused aggregation of the second PMN, which was measured as a change in light transmission. The size of the assay aliquot was chosen to give a submaximal transmission change (usually -70%) for the untreated control. The percentage inhibition of LTB4 formation was calculated from the ratio of transmission change in the sample to the transmission change in the compound-free control.

Test [2] has as its system guinea pig trachea. In words: Antigen Challenge in vitro Assay: contraction of sensitized tracheal chains by egg albumin. Format: cell-based. Particulars: Cavia porcellus; for inhibition at 3 µg/mL: 3 μg/ml. The procedure: Male guinea pigs weighing 300-350 g were sensitized by injecting (I.P.) 0.5 ml of a suspension containing 0.4 mg of egg albumin (Ovalbumin, Grade V, Sigma Chemical Co.) and 4.0 g aluminum hydroxide in 19.6 ml of saline. Two weeks were permitted for sensitization to occur.
Three sensitized guinea pigs were stunned and exsanguinated. The tracheas were removed, freed of adhering tissue and divided longitudinally by cutting through the cartilaginous tissue directly opposite the muscle insertion. Each opened trachea was then transected between every second cartilage. Four of the cut sections were tied together, end to end, in a series with No. 7 silk thread ensuring that the tracheal muscles were all in the same vertical plane. Thus, each chain consisted of tissue from three different animals.
The chain so formed was then suspended under 1 g of tension (by silk ties at each end) in a 20 ml organ bath containing 10 ml of modified^1 Krebs-Henseleit buffer solution gassed with 95% O2 and 5% CO2 at 37° C. Mepyramine (0.55 μg/ml) and indomethacin (2.67 μg/ml) were added to the buffer to avoid the contribution of histamine receptors and cyclooxygenase products to the contraction. To record responses one end of the tracheal chain was attached to a Gould-Statham UC-2 force displacement transducer which was connected to a Beckman Type R-dynograph.The preparations were allowed to equilibrate for one hour during which time the tissues were automatically washed (10 ml volume displacement) every 6 minutes.
After the equilibration period the tissues were primed with methacholine (3 μg/ml; 1.5×10^-5 M), washed and allowed to recover to baseline. The tissues were treated again with a second dose of methacholine, washed, allowed to return to baseline and washed for an additional hour.
Two chains were used as a control. These were incubated in a concentration of egg albumin sufficient to induce an average contraction of 50-80% of the methacholine response.
Each compound to be tested was added to two other baths (at a final concentration in each bath of 10 μg/ml) 15 minutes prior to challenging the fresh chains with egg albumin.
The response of the challenged tissue was expressed as a percentage of the methacholine maximum. The percentage inhibition for each compound was then calculated. Compounds which at 10 μg/ml (final conc.) inhibited the egg albumin response by 50% or more were retested at a lower concentration.

Test [3] deals with asthmatic rats. In words: Asthmatic Rat Assay: duration of dyspnoea after egg albumin aerosol challenge. Format: in vivo. Particulars: p.o. The text has this:
Rats were obtained from an inbred line of asthmatic rats. Both female and male rats from 200 to 300 g were used.
Egg albumin (EA), grade V, crystallized and lyophilized, was obtained from Sigma Chemical Co., St. Louis. Bordetella pertussis vaccine, containing 30×10^9 killed bacteria per ml was obtained from the Institut Armand-Frappier, Laval des Rapides, Quebec. Aluminum hydroxide was obtained from the Regis Chemical Company, Chicago.
The challenge and subsequent respiratory recordings were carried out in a clear plastic box with internal dimensions 10×6×4 inches. The top of the box was removable; in use, it was held firmly in place by four clamps and an airtight seal was maintained by a soft rubber gasket. […] A Fleisch No. 0000 pneumotachograph was inserted into one end of the box and coupled to a Grass volumetric pressure transducer (PT5-A) which was then connected to a Beckman Type R Dynograph through appropriate couplers. While aerosolizing the antigen, the outlets were open and the pneumotachograph was isolated from the chamber. The outlets were closed and the pneumotachograph and the chamber were connected during the recording or the respiratory patterns. For challenge, 2 ml of a 3% solution of antigen in saline was placed into each nebulizer and the aerosol was generated with air from a small Potter diaphragm pump operating at 10 psi and a flow of 8 liters/minute.
Rats were sensitized by injecting (s.c.) 1 ml of a suspension containing 1 mg EA and 200 mg aluminum hydroxide in saline. Simultaneously, they received an intraperitoneal (i.p.) injection of 0.5 ml of B. pertussis vaccine. They were used between days 14 and 18 postsensitization. In order to eliminate the serotonin component of the response, rats were pretreated intravenously 5 minutes prior to aerosol challenge with […] methylserzide. Rats were then exposed to an aerosol of 3% EA in saline for exactly 1 minute, then their respiratory profiles were recorded for a further 25-30 minutes. The duration of continuous dyspnoea was measured from the respiratory recordings.
Compounds were generally administered either intraperitoneally 1 hour prior to challenge or orally 11/2 hours prior to challenge. They were either dissolved in dimethylsulfoxide or suspended in 0.1% methocel and 0.5% Tween 80. The volume injected was 2 ml/kg (intraperitoneally) or 10 ml/kg (orally (p.o.)). Prior to oral treatment rats were starved overnight. Their activity was determined in terms of their ability to decrease the duration of symptoms of dyspnoea in comparison with a group of vehicle-treated controls. Usually, a compound was evaluated at a series of doses and an ED50 was determined. This was defined as the dose (mg/kg) which would inhibit the duration of symptoms by 50%.

The test system of test [4] is PAF-induced hyperalgesia in the rat paw. In words: PAF-Induced Hyperalgesia Assay. Format: in vivo, rat (Sprague-Dawley). Particulars: 10 mg/kg, i.p.

Values after ≈ are worked out from the molar mass of the structure shown.

On to `c1ccc2c(c1)Nc1nccnc1O2`, for which the IC50 in test [1] lay within 0.5 to 1 µg/mL (≈ 2.7 to 5.4 µM). The inhibition at 3 µg/mL in test [2] amounted to 35%.

Consider `COc1ccc2c(c1)Sc1nccnc1N2C`, for which the “Asthmatic Rat % Inhibition” value in test [3] (3 mg/kg) stood at 43%.

As to `c1ccc2c(c1)Nc1nccnc1S2` [drawing 27], in test [3] (5 mg/kg), the “Asthmatic Rat % Inhibition” value turned out to be 30%. Further, the “PAF % Inhibition” value in test [4] was 70%.

For `COc1ccc2c(c1)[S+]([O-])c1nccnc1N2C` (centres unmarked), the “Asthmatic Rat % Inhibition” value in test [3] (3 mg/kg) is recorded as 25%.

For `CCOC(=O)CN1c2ccccc2Sc2nccnc21`, the inhibition at 3 µg/mL in test [2] is 22%.

As to `COc1ccc2c(c1)Sc1nccnc1N2`, the IC50 in test [1] fell in the range of 0.05 to 0.5 µg/mL (≈ 0.216 to 2.16 µM). In addition, in test [2], the inhibition at 3 µg/mL was 42%.

Turning to `CN1c2cc(Cl)c(O)cc2Sc2nccnc21` [drawing 28], the “Asthmatic Rat % Inhibition” value in test [3] (5 mg/kg) is on record as 47%.

Regarding `COc1cc2c(cc1Cl)N(C)c1nccnc1S2`, the IC50 in test [1] stood at 5 µg/mL (≈ 17.9 µM).

For the molecule `CC(=O)N1c2ccccc2Sc2nccnc21`, the inhibition at 3 µg/mL in test [2] was found to be 14%.

As to `COc1cc2c(cc1Cl)Nc1nccnc1S2`, in test [1], the IC50 is 1 µg/mL (≈ 3.76 µM).

For `CN1c2ccccc2Sc2nccnc21`, the IC50 in test [1] is 1 to 5 µg/mL (≈ 4.65 to 23.2 µM).

With `CN1c2ccc(O)cc2Sc2nccnc21` [drawing 21], the IC50 in test [1] is 1 to 5 µg/mL (≈ 4.32 to 21.6 µM). Besides, in test [2], the inhibition at 3 µg/mL is 71%.

Turning to `CN1c2ccc(O)cc2Sc2nccnc21` [drawing 30], the “Asthmatic Rat % Inhibition” value in test [3] (3 mg/kg) came to 39%.

On to `c1ccc2c(c1)Nc1nccnc1S2` [drawing 17], for which the IC50 in test [1] turned out to be 5 µg/mL (≈ 24.8 µM). Moreover, the inhibition at 10 µg/mL in test [2] (10 μg/ml) worked out at 85%.

On to `CN1c2cc(Cl)c(O)cc2Sc2nccnc21` [drawing 18], for which the IC50 in test [1] turned out to be 0.2 µg/mL (≈ 0.753 µM).
